4 compounds from US20220287970A1, “COMPOSITION FOR INHIBITING SAPONIN-INDUCED HEMOLYSIS, CONTAINING CATIONIC LIPOSOME” (priority 2020, published 2022) can be followed below.

In series [1] the test system is red blood cells (RBCs). As to the kind of experiment: Hemolysis analysis: steroidal and triterpenoid saponins (Example 5). The format is cell-based. Particulars: saponin alone. The protocol:
1) The liposome, saponin, sucrose in a HEPES buffer (pH 7.4), and distilled water were placed in a 96-well plate, as shown in Tables 14 and 15 below.
2) The reaction was carried out at room temperature and 300 rpm for 30 minutes using an orbital shaker.
3) 3 mL of RBCs were suspended in 10 mL of PBS and centrifuged at room temperature and 1500 rpm for 5 minutes, after which the supernatant was removed.
4) Steps 2) and 3) were repeated three times, and thus the RBCs were washed.
5) The RBC pellet was suspended in 1 mL of PBS and diluted to 1/100, followed by cell counting.
6) The RBCs were diluted to 1.5×10^9 cells/mL using PBS and dispensed at 3×10^7 cells/20 μL/well in a 96-well plate treated with the test material of 2) above.
7) The reaction was carried out at room temperature and 300 rpm for 1 hour using an orbital shaker.
8) The 96-well plate was centrifuged at room temperature and 1500 rpm for 5 minutes.
9) 50 μL of the supernatant was transferred to a new 96-well plate, and the absorbance was then measured at 415 nm.
10) Hemolysis (%) was calculated using the following equation.
(§1) Hemolysis (%)=(OD of sample OD of 0% hemolysis)/(0D of 100% hemolysis−OD of 0% hemolysis)×100

The subject of series [2] is red blood cells (RBCs). As to the kind of experiment: Hemolysis analysis: cationic liposome screening vs crude saponin and QS21 (Example 3). Format: cell-based. The conditions noted are these: saponin alone. The protocol:
1) After freeze-drying, the liposome stored in the glass vial was hydrated with 225 μL of distilled water and then allowed to react at 60° C. for 10 minutes to thus completely dissolve the liposome.
2) The liposome, saponin, sucrose in a HEPES buffer (pH 7.4), and distilled water were placed in a 96-well plate, as shown in Tables 8 and 9 below.
3) The reaction was carried out at room temperature and 300 rpm for 30 minutes using an orbital shaker.
4) 3 mL of RBCs were suspended in 10 mL of PBS and centrifuged at room temperature and 1500 rpm for 5 minutes, after which the supernatant was removed.
5) Steps 3) and 4) were repeated three times, and thus the RBCs were washed.
6) The RBC pellet was suspended in 1 mL of PBS and diluted to 1/100, followed by cell counting.
7) The RBCs were diluted to 1.5×10^9 cells/mL using PBS and dispensed at 3×10^7 cells/20 μL/well in a 96-well plate treated with the test material of 2) above.
8) The reaction was carried out at room temperature and 300 rpm for 1 hour using an orbital shaker.
9) The 96-well plate was centrifuged at room temperature and 1500 rpm for 5 minutes.
10) 50 μL of the supernatant was transferred to a new 96-well plate, and the absorbance was then measured at 415 nm.
11) Hemolysis (%) was calculated using the following equation.
as §1

As to `C[C@@H]1CC[C@@]2(OC1)O[C@H]1C[C@H]3[C@@H]4CC=C5C[C@@H](O[C@@H]6O[C@H](CO)[C@@H](O[C@@H]7O[C@@H](C)[C@H](O[C@@H]8O[C@@H](C)[C@H](O)[C@@H](O)[C@H]8O)[C@@H](O)[C@H]7O)[C@H](O)[C@H]6O[C@@H]6O[C@@H](C)[C@H](O)[C@@H](O)[C@H]6O)CC[C@]5(C)[C@H]4CC[C@]3(C)[C@@]1(O)[C@@H]2C` [Paris VII], in the series on red blood cells (RBCs) [1], the “amount of saponin at which 60% hemolysis was observed” value turned out to be 1.25 µg and the “amount of saponin at which 100% hemolysis was observed” value amounted to 5 µg.
Taken in the same sequence, the figures for `C[C@@H]1CC[C@@]2(OC1)O[C@H]1[C@@H](O)[C@H]3[C@@H]4CC[C@H]5C[C@@H](O[C@@H]6O[C@H](CO)[C@H](O[C@@H]7O[C@H](CO)[C@@H](O)[C@H](O[C@@H]8OC[C@@H](O)[C@H](O)[C@H]8O)[C@H]7O[C@@H]7O[C@H](CO)[C@H](O)[C@H](O[C@@H]8O[C@H](CO)[C@@H](O)[C@H](O)[C@H]8O)[C@H]7O)[C@H](O)[C@H]6O)[C@H](O)C[C@]5(C)[C@H]4CC[C@]3(C)[C@H]1[C@@H]2C` [digitonin] were 2.5 µg and 10 µg.
Taken in the same sequence, the figures for `C[C@@H]1O[C@@H](O[C@H]2[C@H](O[C@H]3CC[C@@]4(C)[C@@H](CC[C@]5(C)[C@@H]4CC=C4[C@@H]6CC(C)(C)CC[C@]6(C(=O)O)CC[C@]45C)[C@]3(C)CO)OC[C@H](O)[C@@H]2O)[C@H](O)[C@H](O)[C@H]1O` [α-hederin] were 1.25 µg and 10 µg.
QS21: the “amount of saponin at which 100% hemolysis was observed” value in the series with red blood cells (RBCs) [2] came out at 2.5 µg.
